Results: ChEMBL document CHEMBL1144869, “Introduction of a chemical constraint in a short peptide derived from human acidic fibroblast growth factor elicits mitogenic structural determinants” (2003)

What was measured:
NIH3T3 = test: Displacement of human acidic FGF from FGF receptor of mouse 3T3 cells at 0-200 uM; format: cell-based
Mus musculus = species: Mus musculus; test: Mitogenic effect on BALB/c 3T3 A31 fibroblast culture at 0-200 uM; format: functional; conditions: BALB/c3T3, read-out: ED50 (the source's name)

| SMILES | ID50 (NIH3T3) [µM] | EC50 (Mus musculus) [µM] |
| --- | --- | --- |
| CC(=O)N[C@@H](Cc1c[nH]c2ccccc12)C(=O)N[C@@H](Cc1ccccc1)C(=O)N[C@H](C(=O)NCC(=O)N[C@@H](CC(C)C)C(=O)N[C@@H](CCCCN)C(=O)N[C@@H](CCCCN)C(=O)N[C@@H](CC(N)=O)C(=O)NCC(=O)N[C@@H](CO)C(=O)N[C@@H](CO)C(=O)N[C@@H](CCCCN)C(=O)N[C@@H](CCCN=C(N)N)C(=O)NCC(=O)N1CCC[C@@H]1C(=O)N[C@@H](CCCN=C(N)N)C(=O)N[C@H](C(N)=O)[C@@H](C)O)C(C)C | 50 |  |
| CC(=O)N[C@@H](Cc1c[nH]c2ccccc12)C(=O)N[C@@H](Cc1ccccc1)C(=O)N[C@H](C(=O)NCC(=O)N[C@@H](CC(C)C)C(=O)N[C@@H](CCCCN)C(=O)N[C@@H](CCCCN)C(=O)N[C@@H](CC(N)=O)C(=O)NCC(=O)N[C@@H](CO)C(=O)N[C@@H](CO)C(=O)N[C@@H](CCCCN)C(=O)N[C@@H](CCCN=C(N)N)C(=O)NCC(=O)N1CCC[C@H]1C(=O)N[C@@H](CCCN=C(N)N)C(=O)N[C@H](C(N)=O)[C@@H](C)O)C(C)C |  | 20 |
